Measurements: patent US9206201B2, “Boronic acid bearing liphagane compounds as inhibitors of P13K-α and/or β” (COUNCIL OF SCIENTIFIC & INDUSTRIAL RESEARCH, priority 2012, dated 2015)
Read-outs that look alike come from different tables or passages of the source.

Legend:
PI3K δ = PI3K δ (Homo sapiens (Human), UniProt O00329); assay: PI3K inhibition assay, PI3K δ isoform; type: biochemical
Method: (§1) PI3K inhibition assay (PI3K Assay (Emmanuelle M, Huang Y, Yan H G et al. Targeting Protein Translation in Human Non-Small Cell Lung Cancer via Combined MEK and Mammalian Target of Rapamycin Suppression. Cancer Res 67:(23). (2007).) was carried out by PI3 Kinase activity/inhibitor assay kit, where PI3 kinase reaction was set up in Glutathione-coated strips/plate for inhibitor reaction. Kinase and inhibitors were pre-incubated for 10 minutes prior to the addition of PIP2 substrate. 5 μL of 5× kinase reaction buffer were added in each well followed by the further addition of 5 μL/well of PIP2 substrate. Then distilled H2O was added to each well so as to make up a final volume of 25 μL/well. Incubation was done at rt for 1 hour which was followed by washing the wells 3 times with 200 μL of 1×TBST per well and then 2 times with 200 μL of IX TBS per well. Then 100 μL of the Substrate TMB per well was added and then to keep for colour development in the dark for 5-20 minutes. However, appearance of the blue color to avoid over-development were monitored. 100 μL of the stop solution per well was used to stop the reaction. Readings were recorded at 450 nm.

PI3Kα = PI3Kα (Homo sapiens (Human), UniProt P42336); assay: PI3K inhibition assay (PI3 Kinase activity/inhibitor assay kit), PI3Kα; type: biochemical; conditions: read-out: IC50 against PI3Kα
PI3Kβ = PI3Kβ (Homo sapiens (Human), UniProt P42338); assay: PI3K inhibition assay (PI3 Kinase activity/inhibitor assay kit), PI3Kβ; type: biochemical
Method: as §1, with “Y, Yan H G” left out, “nm. The IC50 value of a drug measures the effectiveness of a compound in inhibiting biological or biochemical function. […]” for “nm.”

PI3K γ = PI3K γ (Homo sapiens (Human), UniProt P48736); assay: PI3K inhibition assay, PI3K γ isoform; type: biochemical
Method: as §1

human cancer cell lines = assay: In vitro cell line based anticancer activity, human cancer cell lines; conditions: 10 μM
From the text: (§2) The MTT assay (MTT Assay (Legrier M E, Yang C P, Yan H G et al. Targeting protein translation in human non small lung cancer via combined MEK and mammalian target of rapamycin suppression. Cancer Res 67:11300-8(2007).) is useful for measuring the effect of a wide range of compounds on the in vitro growth of either normal or cancer cell lines. The assay was set up in a 96-well, flat-bottomed polystyrene microtiter plate. 3-5000 cells were suspended per well in appropriate growth medium, and the cells were added to replicate wells (triplicates were preferred). It was preferable to add the cells to the required number of wells in the plate prior to adding the drugs or the test agents. After the cells were added to the plate, it was placed on the incubator for overnight incubation, while the agents to be tested were being prepared. After overnight incubation drugs or test compounds were added at defined concentrations to each set of replicate wells and incubated for 48 hrs in CO2 incubator. Most of these compounds were dissolved in dimethyl sulfoxide (DMSO) for the final addition. After 48 hr incubation, diluted the MTT stock solution ([…]) with an equal volume of tissue culture medium and added 20 μl of this solution directly to each well with a multichannel pipette. […] A standard micro plate reader with adjustable wavelength across the visible spectrum was used. […]

caco-2 = assay: MTT cytotoxic assay, colon (caco-2) cell line; design: species or system human; conditions: 48 h, read-out: cell based IC50 (MTT)
From the text: as §2

[1] = test system: caco-2, colon human cancer cell line; assay: Cell cycle analysis by flow cytometry (propidium iodide); type: cell-based; conditions: caco-2, under similar conditions, concentration not given
Method: Analysis (Cell cycle (Waxman D J, Schwartz P S, Harnessing apoptosis for improved anti-cancer gene therapy, Cancer Res. 63:8563-8572(2003).) of a population of cells replication state can be achieved by fluorescence labeling of the nuclei of cells in suspension and then analyzing the fluorescence properties of each cell in the population. The experiment was performed using caco-2, colon human cancer cell line. Cells were seeded in 6 well plates at the concentration of 3×10^5 cells/ml/well. Plate was incubated in CO2 incubator for overnight. After overnight incubation test sample(s) were added at desired concentration, sparing wells for negative and positive control and incubated for 24 hrs. After 24 hr incubation, cell were trypsinized along with test sample from each well was extracted using a micropippete and separately transferred into 15 ml centrifuge tubes. Tubes were centrifuged at 3000 rpm for 5 min. […] Reading was taken on flow cytometer (BD Biosciences).
Results: Cell cycle is the life cycle of a cell. […] In the present study, the effect of compound E on the DNA content by cell cycle phase distribution was assessed by using colon (caco-2) cell line. […] Cells (2×10^6/ml/6-well plate), exposed to different concentrations of compound E were stained with propidium iodide (PI) to determine DNA fluorescence and cell cycle phase distribution. […]

[2] = test system: caco-2 colon human cancer cell line; assay: Annexin-V apoptotic assay by flow cytometry; type: cell-based; conditions: caco-2, under similar conditions, concentration not given
Method: The cell death status was analysed using Annexin-V (Annexin-V apoptotic assay (Yunqing Li, FadilaGuessous, SherwinKwon, Manish Kumar. PTEN Has Tumor-Promoting Properties in the Setting of Gain-of-Function p53 Mutations, 2008 Cancer Res; 68: (6) (2008).) Flow cytometery. The experiment was performed using caco-2 colon human cancer cell line. Cells were seeded in 6 well plates at the concentration of 2×10^5 cells/ml/well. Plates were incubated in CO2 incubator for overnight. After overnight incubation test sample(s) were added at desired concentration, sparing wells for negative and positive control and incubated for 48 hrs. After 48 hr incubation, cell were trypsinized and separately transferred into 15 ml centrifuge tubes. Tubes were centrifuged at 3000 rpm for 5 min. The supernatant was discarded and pellet was resuspended in 1 ml filtered PBS and centrifuged at 2000 rpm for 5 min. After 5 mins supernatant was discarded and pellet was resuspended in […] of 1× binding buffer to make cell suspension. From this suspension, 100 μl of cells is transferred in falcon tube and then 10 μl of propidium iodide (PI) and 5 μl Annexin-V antibody were added and incubated for 30 min in dark. After 30 min incubation in dark, apoptosis were analysed by flow cytometer (BD Biosciences).
Overall, there was a concentration dependent net increase in late apoptotic cell population (FIG. 7).

[3] = test system: pAkt (Ser 473) in CACO-2 cells; assay: Immunofluorescence microscopic analysis of pAKT (serine 473); type: cell-based, human; conditions: 4 μM, 24 hr
Method: For immunofluorescence microscopic analysis, 4×10^4 CACO-2 cells/ml were seeded on 18-mm coverslips in 6-well plates, one day before experiment. […] Following treatment, cells were washed in PBS, followed by fixation in absolute methanol at −20° C. for 5 min^19. The fixed cells were blocked with 10% goat serum in PBS for 20 min at room temperature to eliminate non-specific binding of secondary antibody. Cells were incubated with polyclonal rabbit pAKT (serine 473) primary antibody (1:100 in 0.5% BSA in PBS; Santa Cruz Biotechnology) for 1 h at 25° C. in moist chamber, then washed and incubated with secondary antibody. The cells were washed and incubated for 45 min with a Texas red-conjugated goat antirabbit antibody (1:500 in 0.5% BSA in PBS; Santa Cruz Biotechnology) at 25° C. The coverslips were mounted on glass slides with 4′,6-diamidino-2-phenylindole-containing ProLong Gold Antifade mounting medium (Invitrogen) and visualized by fluorescence microscope (Olympus, IX81) under an Olympus 60× oil immersion objective lens. The negative controls were also used in which incubation of cells with primary antibody was omitted.
Results: Phosphorylation (activation) of Akt is associated with protection of cells from apoptosis^20 (K. Nicholson, N. Anderson. 2002. The protein kinase B/Akt signaling pathway in human malignancy. Cell signal 14: 381-395). […]

PI3Kα, sequence (P42336 whole entry, looked up): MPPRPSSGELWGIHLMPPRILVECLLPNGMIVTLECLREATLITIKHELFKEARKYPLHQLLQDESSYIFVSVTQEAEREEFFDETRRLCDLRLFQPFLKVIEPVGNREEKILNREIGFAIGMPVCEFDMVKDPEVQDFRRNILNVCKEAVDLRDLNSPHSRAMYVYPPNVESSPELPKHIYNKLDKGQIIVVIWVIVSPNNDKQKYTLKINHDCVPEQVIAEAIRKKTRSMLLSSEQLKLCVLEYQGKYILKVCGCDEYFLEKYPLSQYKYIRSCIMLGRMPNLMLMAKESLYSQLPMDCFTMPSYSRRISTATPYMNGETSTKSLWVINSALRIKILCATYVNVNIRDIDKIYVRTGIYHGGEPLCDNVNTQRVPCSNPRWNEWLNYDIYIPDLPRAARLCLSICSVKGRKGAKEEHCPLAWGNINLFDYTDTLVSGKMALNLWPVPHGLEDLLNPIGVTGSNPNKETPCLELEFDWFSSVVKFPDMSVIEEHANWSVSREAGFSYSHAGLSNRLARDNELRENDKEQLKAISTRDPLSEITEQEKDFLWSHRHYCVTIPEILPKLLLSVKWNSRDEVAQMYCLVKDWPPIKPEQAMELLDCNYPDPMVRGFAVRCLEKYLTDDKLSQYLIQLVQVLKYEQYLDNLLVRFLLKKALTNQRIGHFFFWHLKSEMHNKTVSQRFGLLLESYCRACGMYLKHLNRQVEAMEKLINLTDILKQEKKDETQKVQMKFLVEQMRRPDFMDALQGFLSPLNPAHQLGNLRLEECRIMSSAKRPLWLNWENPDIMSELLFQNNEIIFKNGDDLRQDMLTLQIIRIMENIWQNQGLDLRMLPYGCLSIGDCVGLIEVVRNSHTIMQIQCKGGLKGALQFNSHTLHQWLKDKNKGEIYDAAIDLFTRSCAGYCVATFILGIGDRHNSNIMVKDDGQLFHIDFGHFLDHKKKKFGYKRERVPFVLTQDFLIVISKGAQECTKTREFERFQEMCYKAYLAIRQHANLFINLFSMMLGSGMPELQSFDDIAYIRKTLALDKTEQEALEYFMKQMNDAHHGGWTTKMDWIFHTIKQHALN
PI3Kα, sequence (P27986 whole entry partner, looked up): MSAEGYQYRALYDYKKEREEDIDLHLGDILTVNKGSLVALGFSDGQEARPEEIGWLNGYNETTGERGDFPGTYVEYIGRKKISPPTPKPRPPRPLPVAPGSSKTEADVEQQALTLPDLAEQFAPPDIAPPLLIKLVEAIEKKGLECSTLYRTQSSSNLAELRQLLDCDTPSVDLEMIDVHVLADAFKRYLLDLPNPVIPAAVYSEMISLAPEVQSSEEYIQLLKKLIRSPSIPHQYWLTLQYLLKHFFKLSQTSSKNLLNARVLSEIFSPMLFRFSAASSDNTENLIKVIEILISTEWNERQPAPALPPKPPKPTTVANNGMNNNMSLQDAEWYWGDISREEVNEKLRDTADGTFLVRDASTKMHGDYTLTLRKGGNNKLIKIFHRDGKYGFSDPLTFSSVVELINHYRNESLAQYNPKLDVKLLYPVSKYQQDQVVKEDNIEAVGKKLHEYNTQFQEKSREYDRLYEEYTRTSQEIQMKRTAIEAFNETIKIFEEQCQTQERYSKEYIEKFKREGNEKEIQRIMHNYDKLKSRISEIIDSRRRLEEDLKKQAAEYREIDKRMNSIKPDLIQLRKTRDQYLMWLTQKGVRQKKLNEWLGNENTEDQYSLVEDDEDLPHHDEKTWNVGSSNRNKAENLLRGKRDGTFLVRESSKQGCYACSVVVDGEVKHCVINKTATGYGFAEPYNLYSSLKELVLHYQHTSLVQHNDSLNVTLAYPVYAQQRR
PI3Kβ, sequence (P42338 whole entry): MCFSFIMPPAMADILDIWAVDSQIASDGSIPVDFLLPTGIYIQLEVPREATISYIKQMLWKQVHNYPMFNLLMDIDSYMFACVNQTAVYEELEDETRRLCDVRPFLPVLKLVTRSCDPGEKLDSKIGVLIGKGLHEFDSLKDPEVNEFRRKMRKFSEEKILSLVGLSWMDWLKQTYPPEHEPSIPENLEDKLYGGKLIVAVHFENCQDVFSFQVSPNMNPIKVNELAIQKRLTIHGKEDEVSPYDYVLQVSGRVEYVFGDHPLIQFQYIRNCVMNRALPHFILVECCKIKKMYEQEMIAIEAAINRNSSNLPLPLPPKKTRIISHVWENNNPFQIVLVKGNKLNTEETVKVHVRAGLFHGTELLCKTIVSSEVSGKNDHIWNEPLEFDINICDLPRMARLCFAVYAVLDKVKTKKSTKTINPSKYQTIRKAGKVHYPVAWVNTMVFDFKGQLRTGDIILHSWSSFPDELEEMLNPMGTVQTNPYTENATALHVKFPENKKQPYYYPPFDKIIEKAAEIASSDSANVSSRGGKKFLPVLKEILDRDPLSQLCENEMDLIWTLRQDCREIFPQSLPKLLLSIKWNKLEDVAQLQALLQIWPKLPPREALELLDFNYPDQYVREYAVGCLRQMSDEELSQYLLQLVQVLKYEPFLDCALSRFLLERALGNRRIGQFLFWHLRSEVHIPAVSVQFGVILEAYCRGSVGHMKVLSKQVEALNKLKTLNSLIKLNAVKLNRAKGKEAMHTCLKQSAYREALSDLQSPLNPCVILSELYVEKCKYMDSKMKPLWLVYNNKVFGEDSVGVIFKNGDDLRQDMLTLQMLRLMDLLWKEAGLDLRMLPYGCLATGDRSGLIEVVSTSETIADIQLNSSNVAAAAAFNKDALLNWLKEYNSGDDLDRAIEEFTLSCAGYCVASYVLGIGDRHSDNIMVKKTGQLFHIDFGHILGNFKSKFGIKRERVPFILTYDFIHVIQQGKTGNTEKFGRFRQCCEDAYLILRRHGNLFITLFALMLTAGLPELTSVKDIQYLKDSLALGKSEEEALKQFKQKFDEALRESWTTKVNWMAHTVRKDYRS
PI3Kβ, sequence (P27986 whole entry partner): as the sequence (P27986 whole entry partner, looked up) above
PI3K γ, sequence (P48736 whole entry, canonical isoform): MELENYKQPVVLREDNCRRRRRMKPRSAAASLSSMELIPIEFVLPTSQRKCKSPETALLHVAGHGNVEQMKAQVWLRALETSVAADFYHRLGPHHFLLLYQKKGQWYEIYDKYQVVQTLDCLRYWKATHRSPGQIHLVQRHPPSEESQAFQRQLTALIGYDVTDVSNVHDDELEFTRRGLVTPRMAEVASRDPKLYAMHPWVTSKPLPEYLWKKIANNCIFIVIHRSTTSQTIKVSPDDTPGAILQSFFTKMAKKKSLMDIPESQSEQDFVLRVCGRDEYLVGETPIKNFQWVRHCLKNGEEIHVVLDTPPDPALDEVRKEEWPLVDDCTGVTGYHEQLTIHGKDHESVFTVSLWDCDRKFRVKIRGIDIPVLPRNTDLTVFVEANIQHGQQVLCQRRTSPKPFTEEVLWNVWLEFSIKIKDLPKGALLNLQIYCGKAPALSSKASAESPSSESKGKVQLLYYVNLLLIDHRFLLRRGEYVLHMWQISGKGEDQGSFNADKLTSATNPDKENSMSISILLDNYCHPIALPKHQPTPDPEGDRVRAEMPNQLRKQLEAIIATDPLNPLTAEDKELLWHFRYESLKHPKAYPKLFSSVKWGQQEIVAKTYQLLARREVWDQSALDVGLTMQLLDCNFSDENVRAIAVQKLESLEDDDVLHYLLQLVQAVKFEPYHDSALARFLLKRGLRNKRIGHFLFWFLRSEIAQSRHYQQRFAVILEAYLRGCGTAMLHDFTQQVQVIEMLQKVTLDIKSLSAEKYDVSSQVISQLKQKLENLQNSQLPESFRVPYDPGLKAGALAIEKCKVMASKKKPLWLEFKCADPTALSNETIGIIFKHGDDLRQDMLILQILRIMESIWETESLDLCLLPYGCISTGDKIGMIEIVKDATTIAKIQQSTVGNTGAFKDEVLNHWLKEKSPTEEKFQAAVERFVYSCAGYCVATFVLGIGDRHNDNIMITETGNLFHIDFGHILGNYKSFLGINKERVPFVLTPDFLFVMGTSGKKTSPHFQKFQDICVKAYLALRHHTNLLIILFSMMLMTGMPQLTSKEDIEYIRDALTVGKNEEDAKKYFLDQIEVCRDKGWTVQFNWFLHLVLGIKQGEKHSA
PI3K δ, sequence (O00329 whole entry, canonical isoform): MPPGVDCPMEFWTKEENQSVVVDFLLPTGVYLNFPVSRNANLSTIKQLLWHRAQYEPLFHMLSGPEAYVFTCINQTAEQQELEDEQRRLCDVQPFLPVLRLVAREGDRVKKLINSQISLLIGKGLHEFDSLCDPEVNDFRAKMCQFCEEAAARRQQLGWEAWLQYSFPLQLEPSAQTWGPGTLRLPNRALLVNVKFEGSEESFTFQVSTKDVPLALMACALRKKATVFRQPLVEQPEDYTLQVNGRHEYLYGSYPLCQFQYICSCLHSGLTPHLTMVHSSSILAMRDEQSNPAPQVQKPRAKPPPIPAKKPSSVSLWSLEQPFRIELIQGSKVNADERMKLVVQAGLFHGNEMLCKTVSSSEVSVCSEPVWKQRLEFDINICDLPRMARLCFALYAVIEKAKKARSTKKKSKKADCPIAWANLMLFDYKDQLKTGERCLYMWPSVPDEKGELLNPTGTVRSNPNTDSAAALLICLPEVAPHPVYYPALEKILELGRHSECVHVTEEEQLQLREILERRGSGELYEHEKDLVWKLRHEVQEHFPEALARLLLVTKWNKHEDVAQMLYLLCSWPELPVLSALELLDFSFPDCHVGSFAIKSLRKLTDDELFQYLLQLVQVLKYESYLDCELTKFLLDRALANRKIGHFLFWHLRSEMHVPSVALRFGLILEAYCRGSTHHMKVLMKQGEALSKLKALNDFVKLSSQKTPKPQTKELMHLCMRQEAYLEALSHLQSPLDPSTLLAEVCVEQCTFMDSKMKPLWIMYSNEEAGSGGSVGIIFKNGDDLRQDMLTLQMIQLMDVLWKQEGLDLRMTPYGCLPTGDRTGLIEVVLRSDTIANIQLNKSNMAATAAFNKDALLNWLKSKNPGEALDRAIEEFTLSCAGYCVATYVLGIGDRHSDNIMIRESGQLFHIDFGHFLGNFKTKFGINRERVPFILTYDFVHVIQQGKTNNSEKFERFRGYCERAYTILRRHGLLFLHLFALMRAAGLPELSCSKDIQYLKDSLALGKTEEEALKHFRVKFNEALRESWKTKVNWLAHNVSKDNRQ
PI3K δ, sequence (P27986 whole entry partner, canonical isoform): as the sequence (P27986 whole entry partner, looked up) above

Row | IC50 (PI3K δ) [nM] | IC50 (PI3Kα) [nM] | IC50 (PI3Kβ; read-out: PI3K (IC50) β) [nM] | IC50 (PI3K γ) [nM] | IC50 (PI3Kβ; read-out: IC50 against PI3Kβ) [nM] | Compound | optimal growth inhibition (human cancer cell lines) [%] | IC50 (caco-2) [nM] | percentage of cells in sub-G0 phase [1] [%] | percentage of cells in late apoptotic phase [2] [%] | effect on pAkt (Ser 473) [3]
1 | 303000 | 23 | 5700 | 85400 | – | CC1(C)CCCC2(C)c3c(oc4c(B(O)O)c(O)c(O)cc34)CCC12 (centres unmarked) [Compound AZ] | – | – | – | – | –
2 | – | 140 | – | – | 100 | C=C(CC/C=C(\C)CCC=C(C)C)c1cc2cc(OC)c(OC)cc2o1 [Compound A] | > 74 | 2400 | – | – | –
3 | – | – | – | – | – | Liphagal | – | – | 64.9 | 42.7 | inhibition of pAKT
